{"source": "ChEMBL document CHEMBL5500363", "about": "“Discovery of novel ocotillol derivatives modulating glucocorticoid receptor/NF-κB signaling for the treatment of sepsis” (Eur J Med Chem, 2024)", "key": {"Mus musculus [1]": {"system": "Mus musculus", "assay": "Anti-septic activity in LPS-induced sepsis BALB/c mouse assessed as reduction in serum AST level at 30 mg/kg administered via gavage for 3 days followed by LPS treatment for 6 hrs", "type": "functional, organism-based", "settings": "time 78.0 hrs"}, "Mus musculus [2]": {"system": "Mus musculus", "assay": "Anti-septic activity in LPS-induced sepsis BALB/c mouse assessed as reduction in serum TNF-alpha level at 7.5 to 30 mg/kg administered via gavage for 3 days followed by LPS treatment for 6 hrs by ELISA", "type": "functional, organism-based", "settings": "dose 7.5-30 mg/kg, time 78.0 hrs"}, "RAW264.7 [3]": {"system": "RAW264.7", "assay": "Inhibition of LPS-induced NO production in mouse RAW264.7 cells at 10 uM pretreated for 2 hrs followed by LPS stimulation for 24 hrs by Griess assay relative to control", "type": "functional", "settings": "time 26 hrs"}, "Mus musculus [4]": {"system": "Mus musculus", "assay": "Upregulation of glucocorticoid receptor expression in liver of LPS-induced sepsis BALB/c mouse model at 7.5 to 30 mg/kg administered via gavage for 3 days followed by LPS treatment for 6 hrs by immunofluorescence analysis", "type": "functional, organism-based", "settings": "dose 7.5-30 mg/kg, time 78.0 hrs"}, "RAW264.7 [5]": {"system": "RAW264.7", "assay": "Upregulation of glucocorticoid receptor expression in LPS-treated mouse RAW264.7 cells pretreated for 2 hrs followed by LPS stimulation for 24 hrs by Western blot analysis", "type": "functional, cell-based", "settings": "time 26.0 hrs"}, "RAW264.7 [6]": {"system": "RAW264.7", "assay": "Inhibition of LPS-induced NO production in mouse RAW264.7 cells at 5 uM pretreated for 2 hrs followed by LPS stimulation for 24 hrs by Griess assay relative to control", "type": "functional", "settings": "time 26 hrs"}, "Mus musculus [7]": {"system": "Mus musculus", "assay": "Anti-septic activity in LPS-induced sepsis BALB/c mouse assessed as reduction in serum CRP level at 7.5 to 30 mg/kg administered via gavage for 3 days followed by LPS treatment for 6 hrs", "type": "functional, organism-based", "settings": "dose 7.5-30 mg/kg, time 78.0 hrs"}, "Mus musculus [8]": {"system": "Mus musculus", "assay": "Anti-septic activity in LPS-induced sepsis BALB/c mouse assessed as reduction in pathological change in kidney at 7.5 to 30 mg/kg administered via gavage for 3 days followed by LPS treatment for 6 hrs by H and E staining based analysis", "type": "functional, organism-based", "settings": "dose 7.5-30 mg/kg, time 78.0 hrs"}, "RAW264.7 [9]": {"system": "RAW264.7", "assay": "Downregulation of glucocorticoid receptor in mouse RAW264.7 cells at 20 uM incubated for 24 hrs by Western blot analysis", "type": "functional, cell-based"}, "Mus musculus [10]": {"system": "Mus musculus", "assay": "Anti-septic activity in LPS-induced sepsis BALB/c mouse assessed as body weight recovery at 7.5 to 30 mg/kg administered via gavage for 3 days followed by LPS treatment for 6 hrs", "type": "functional, organism-based", "settings": "dose 7.5-30 mg/kg, time 78.0 hrs"}, "RAW264.7 [11]": {"system": "RAW264.7", "assay": "Effect on KLF9 mRNA expression in mouse RAW264.7 cells by qPCR analysis", "type": "functional, cell-based"}, "RAW264.7 [12]": {"system": "RAW264.7", "assay": "Anti-inflammatory activity in mouse RAW264.7 cells assessed as decrease in LPS-induced p65 phosphorylation at 20 uM pretreated for 2 hrs followed by LPS stimulation for 24 hrs by Western blot analysis", "type": "functional, cell-based", "settings": "time 26.0 hrs"}, "Mus musculus [13]": {"system": "Mus musculus", "assay": "Anti-septic activity in LPS-induced sepsis BALB/c mouse assessed as reduction in lung tissue damage at 7.5 to 30 mg/kg administered via gavage for 3 days followed by LPS treatment for 6 hrs by H and E staining based analysis", "type": "functional, organism-based", "settings": "dose 7.5-30 mg/kg, time 78.0 hrs"}, "Mus musculus [14]": {"system": "Mus musculus", "assay": "Anti-septic activity in LPS-induced sepsis BALB/c mouse assessed as increase in survival rate at 7.5 to 30 mg/kg administered via gavage for 3 days followed by LPS treatment for 6 hrs", "type": "functional, organism-based", "settings": "dose 7.5-30 mg/kg, time 78.0 hrs"}, "RAW264.7 [15]": {"system": "RAW264.7", "assay": "Anti-inflammatory activity in mouse RAW264.7 cells assessed as decrease in LPS-induced I-kappaB-alpha phosphorylation at 20 uM pretreated for 2 hrs followed by LPS stimulation for 24 hrs by Western blot analysis", "type": "functional, cell-based", "settings": "time 26.0 hrs"}, "[16]": {"biological_target": "T1, Glucocorticoid receptor (Mus musculus) (UniProt P06537)", "T1 sequence (whole entry)": "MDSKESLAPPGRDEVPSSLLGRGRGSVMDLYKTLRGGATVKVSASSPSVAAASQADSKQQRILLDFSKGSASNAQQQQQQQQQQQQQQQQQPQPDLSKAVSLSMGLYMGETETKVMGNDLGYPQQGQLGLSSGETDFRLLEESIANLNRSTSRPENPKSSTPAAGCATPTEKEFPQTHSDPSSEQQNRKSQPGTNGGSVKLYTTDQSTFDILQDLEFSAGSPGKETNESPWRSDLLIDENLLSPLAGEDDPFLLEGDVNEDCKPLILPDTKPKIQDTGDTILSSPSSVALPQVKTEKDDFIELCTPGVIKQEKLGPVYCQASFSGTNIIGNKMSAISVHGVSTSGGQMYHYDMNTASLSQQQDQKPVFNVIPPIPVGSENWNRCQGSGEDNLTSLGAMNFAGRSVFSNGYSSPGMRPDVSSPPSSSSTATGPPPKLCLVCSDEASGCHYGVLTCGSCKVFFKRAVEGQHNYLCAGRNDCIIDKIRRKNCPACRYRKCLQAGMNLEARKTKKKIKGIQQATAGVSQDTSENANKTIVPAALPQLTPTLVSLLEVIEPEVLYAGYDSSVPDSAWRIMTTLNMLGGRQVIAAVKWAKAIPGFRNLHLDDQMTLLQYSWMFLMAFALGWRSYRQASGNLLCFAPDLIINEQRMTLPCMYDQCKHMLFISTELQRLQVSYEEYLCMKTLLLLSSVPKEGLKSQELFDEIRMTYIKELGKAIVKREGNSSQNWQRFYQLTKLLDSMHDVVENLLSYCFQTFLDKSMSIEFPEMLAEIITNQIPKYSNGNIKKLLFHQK", "assay": "Binding affinity to glucocorticoid receptor in mouse RAW264.7 cells assessed as increase in thermal stability at 47 to 51 degreeC at 40 uM pretreated for 24 hrs followed by heat exposure for 3 mins and subsequently incubated at room temperature for 3 mins by CETSA", "type": "cell-based", "settings": "time 1446.0 min"}, "[17]": {"biological_target": "T1, Glucocorticoid receptor (Mus musculus)", "assay": "Stabilization of glucocorticoid receptor in mouse RAW264.7 cells assessed as blockade of CHX-induced protein degradation at 20 uM incubated for 24 hrs by Western blot analysis", "type": "cell-based"}, "Mus musculus [18]": {"system": "Mus musculus", "assay": "Downregulation of p65 phosphorylation in liver of LPS-induced sepsis BALB/c mouse model at 7.5 to 30 mg/kg administered via gavage for 3 days followed by LPS treatment for 6 hrs by Western blot analysis", "type": "functional, organism-based", "settings": "dose 7.5-30 mg/kg, time 78.0 hrs"}, "Mus musculus [19]": {"system": "Mus musculus", "assay": "Anti-septic activity in LPS-induced sepsis BALB/c mouse assessed as reduction in serum ALT level at 30 mg/kg administered via gavage for 3 days followed by LPS treatment for 6 hrs", "type": "functional, organism-based", "settings": "time 78.0 hrs"}, "RAW264.7 [20]": {"system": "RAW264.7", "assay": "Anti-inflammatory activity in mouse RAW264.7 cells assessed as inhibition of LPS-induced IL-6 production pretreated for 2 hrs followed by LPS stimulation for 24 hrs by ELISA", "type": "functional, cell-based", "settings": "dose 5-20 µM"}, "RAW264.7 [21]": {"system": "RAW264.7", "assay": "Inhibition of LPS-induced NO production in mouse RAW264.7 cells pretreated for 2 hrs followed by LPS stimulation for 24 hrs by Griess assay", "type": "functional, cell-based"}, "Mus musculus [22]": {"system": "Mus musculus", "assay": "Downregulation of I-kappa-B-alpha phosphorylation in liver of LPS-induced sepsis BALB/c mouse model at 7.5 to 30 mg/kg administered via gavage for 3 days followed by LPS treatment for 6 hrs by Western blot analysis", "type": "functional, organism-based", "settings": "dose 7.5-30 mg/kg, time 78.0 hrs"}, "[23]": {"biological_target": "T1, Glucocorticoid receptor (Mus musculus)", "assay": "Modulation of glucocorticoid receptor in LPS-treated mouse RAW264.7 cells assessed as protein translocation from cytoplasm to nucleus at 20 uM pretreated for 12 hrs followed by LPS stimulation for 2 hrs by immunofluorescence based analysis", "type": "subcellular", "settings": "filed as modulator, time 14.0 hrs"}, "[24]": {"biological_target": "T1, Glucocorticoid receptor (Mus musculus)", "assay": "Binding affinity to glucocorticoid receptor in mouse RAW264.7 cells assessed as thermal stability by measuring protein degradation at 47 degreeC at 10 to 40 uM pretreated for 24 hrs followed by heat exposure for 3 mins and subsequently incubated at room temperature for 3 mins by CETSA", "type": "cell-based", "settings": "dose 10-40 µM, time 1446.0 min"}}, "note": "The source made the active and inactive calls. The rule behind the calls is not given here."}
{"compound": "CC(C)(C)OC(=O)CCC(=O)Nc1nc2c(s1)C[C@]1(C)[C@H]3C[C@@H](O)[C@@H]4C([C@]5(C)CC[C@@H](C(C)(C)O)O5)CC[C@@]4(C)[C@]3(C)CC[C@H]1C2(C)C", "note": "(some centres undefined)", "values": [{"measurement": "Activity", "setting": "Mus musculus [1]", "result": "Active"}, {"measurement": "Activity", "setting": "Mus musculus [2]", "result": "Active"}, {"measurement": "inhibition at 10 µM", "setting": "RAW264.7 [3]", "result": 52.6, "unit": "%"}, {"measurement": "Activity", "setting": "Mus musculus [4]", "result": "Active"}, {"measurement": "Activity", "setting": "RAW264.7 [5]", "result": "Active"}, {"measurement": "inhibition at 5 µM", "setting": "RAW264.7 [6]", "result": 30.3, "unit": "%"}, {"measurement": "Activity", "setting": "Mus musculus [7]", "result": "Active"}, {"measurement": "Activity", "setting": "Mus musculus [8]", "result": "Active"}, {"measurement": "Activity", "setting": "RAW264.7 [9]", "result": "inactive"}, {"measurement": "Activity", "setting": "Mus musculus [10]", "result": "Active"}, {"measurement": "Activity", "setting": "RAW264.7 [11]", "result": "inactive"}, {"measurement": "Activity", "setting": "RAW264.7 [12]", "result": "Active"}, {"measurement": "Activity", "setting": "Mus musculus [13]", "result": "Active"}, {"measurement": "Activity", "setting": "Mus musculus [14]", "result": "Active"}, {"measurement": "Activity", "setting": "RAW264.7 [15]", "result": "Active"}, {"measurement": "Activity", "setting": "[16]", "result": "Active"}, {"measurement": "Activity", "setting": "[17]", "result": "Active"}, {"measurement": "Activity", "setting": "Mus musculus [18]", "result": "Active"}, {"measurement": "Activity", "setting": "Mus musculus [19]", "result": "Active"}, {"measurement": "inhibition", "setting": "RAW264.7 [20]", "result": "Dose-Dependent Effect"}, {"measurement": "IC50", "setting": "RAW264.7 [21]", "result": 3.38, "unit": "µM"}, {"measurement": "Activity", "setting": "Mus musculus [22]", "result": "Active"}, {"measurement": "Activity", "setting": "[23]", "result": "Active"}, {"measurement": "Activity", "setting": "[24]", "result": "Active"}]}
